Data taken from patent publication US9981975B2, “Pyrrolotriazine compounds as tam inhibitors” (Incyte Corporation, priority 2016, dated 2018).

How the values were obtained:
Type in all cases: biochemical
c-Mer = c-Mer (Homo sapiens (Human), UniProt Q12866); experiment: TAM Enzymatic Assay (HTRF), Mer; settings: 60 min, room temperature
Experimental: (§1) The kinase assay buffer contained 50 mM HEPES, pH7.5, 10 mM MgCl2, 1 mM EGTA, 0.01% NP-40 and 2 mM DTT. 0.1 ul test compounds dissolved in DMSO were transferred from compound plates to white 384-well assay plates (Greiner […] plates). […] 4 ul enzyme solution (or assay buffer for the enzyme blank) was added to the appropriate wells in each plate, and then 4 ul/well substrate solution was added to initiate the reaction. The plate was protected from light and incubated at room temperature for 60 min. […] The plate was incubated for 1 h at room temperature, and HTRF (homogenous time resolved fluorescence) signal was measured on a PHERAstar FS plate reader (BMG labtech). Percentage of inhibition was calculated for each concentration and IC50 value was generated from curve fitting with GraphPad Prism software.

phosphor-Axl = phosphor-Axl (Homo sapiens (Human), UniProt P30530); experiment: TAM Enzymatic Assay (HTRF), Axl; settings: recombinant autophosphorylated Axl, 60 min, room temperature
phosphor-Axl, sequence (P30530 26-894): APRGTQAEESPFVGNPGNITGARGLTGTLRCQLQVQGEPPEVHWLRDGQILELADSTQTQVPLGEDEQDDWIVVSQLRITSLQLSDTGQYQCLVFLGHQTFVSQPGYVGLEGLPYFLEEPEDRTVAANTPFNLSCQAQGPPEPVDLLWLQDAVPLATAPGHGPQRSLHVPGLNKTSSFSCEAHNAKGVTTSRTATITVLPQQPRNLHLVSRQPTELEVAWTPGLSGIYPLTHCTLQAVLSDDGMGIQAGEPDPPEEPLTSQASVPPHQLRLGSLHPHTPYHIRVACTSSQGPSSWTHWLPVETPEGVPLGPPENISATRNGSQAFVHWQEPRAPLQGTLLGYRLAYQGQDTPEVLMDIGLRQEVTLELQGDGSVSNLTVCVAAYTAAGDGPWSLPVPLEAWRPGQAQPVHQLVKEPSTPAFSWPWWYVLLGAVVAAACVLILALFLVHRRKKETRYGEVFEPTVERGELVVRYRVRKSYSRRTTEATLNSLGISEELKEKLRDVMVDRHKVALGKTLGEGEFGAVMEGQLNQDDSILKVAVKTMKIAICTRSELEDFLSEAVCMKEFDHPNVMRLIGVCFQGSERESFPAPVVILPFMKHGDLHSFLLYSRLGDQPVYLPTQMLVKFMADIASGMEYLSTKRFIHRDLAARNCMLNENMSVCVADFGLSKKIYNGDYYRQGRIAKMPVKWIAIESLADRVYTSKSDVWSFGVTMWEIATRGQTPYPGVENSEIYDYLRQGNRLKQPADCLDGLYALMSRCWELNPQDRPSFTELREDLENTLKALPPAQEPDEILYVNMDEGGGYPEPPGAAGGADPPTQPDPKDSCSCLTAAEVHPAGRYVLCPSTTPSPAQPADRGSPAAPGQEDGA
Experimental: Autophosphorylation of Axl was carried out by incubating the recombinant Axl protein (Life Technologies, PV4275) in buffer containing 50 mM Tris, pH7.5, 0.2 mg/ml Axl, 5 mM ATP, 20 mM MgCl2 and 2 mM DTT at room temperature for 1 hour.
as §1

Tyro3 = Tyro3 (Homo sapiens (Human), UniProt Q06418); experiment: TAM Enzymatic Assay (HTRF), Tyro3; settings: Tyro3, 60 min, room temperature
Tyro3, sequence (Q06418 41-890): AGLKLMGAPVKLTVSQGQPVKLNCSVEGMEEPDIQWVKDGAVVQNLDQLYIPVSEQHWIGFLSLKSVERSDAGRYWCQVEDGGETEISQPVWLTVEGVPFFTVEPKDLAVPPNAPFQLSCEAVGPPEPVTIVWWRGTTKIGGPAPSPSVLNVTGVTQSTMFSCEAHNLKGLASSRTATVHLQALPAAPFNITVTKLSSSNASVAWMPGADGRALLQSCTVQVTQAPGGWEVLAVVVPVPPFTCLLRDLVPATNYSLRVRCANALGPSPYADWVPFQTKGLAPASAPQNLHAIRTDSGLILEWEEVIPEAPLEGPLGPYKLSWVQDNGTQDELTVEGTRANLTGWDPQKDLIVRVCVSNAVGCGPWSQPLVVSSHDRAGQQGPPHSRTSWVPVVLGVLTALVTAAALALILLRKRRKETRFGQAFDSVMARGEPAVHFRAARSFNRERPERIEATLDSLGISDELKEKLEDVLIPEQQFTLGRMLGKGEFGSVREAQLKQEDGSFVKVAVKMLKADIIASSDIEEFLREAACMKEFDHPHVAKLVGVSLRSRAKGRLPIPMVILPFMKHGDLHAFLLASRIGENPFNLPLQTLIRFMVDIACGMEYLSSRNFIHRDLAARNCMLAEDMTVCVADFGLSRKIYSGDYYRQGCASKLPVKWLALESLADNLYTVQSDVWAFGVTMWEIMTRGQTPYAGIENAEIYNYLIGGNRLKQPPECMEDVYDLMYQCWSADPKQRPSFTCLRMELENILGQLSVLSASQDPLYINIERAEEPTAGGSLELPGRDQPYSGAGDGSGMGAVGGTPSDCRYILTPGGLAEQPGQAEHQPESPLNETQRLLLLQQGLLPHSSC
Experimental: as §1

c-Mer, sequence (Q12866 21-999): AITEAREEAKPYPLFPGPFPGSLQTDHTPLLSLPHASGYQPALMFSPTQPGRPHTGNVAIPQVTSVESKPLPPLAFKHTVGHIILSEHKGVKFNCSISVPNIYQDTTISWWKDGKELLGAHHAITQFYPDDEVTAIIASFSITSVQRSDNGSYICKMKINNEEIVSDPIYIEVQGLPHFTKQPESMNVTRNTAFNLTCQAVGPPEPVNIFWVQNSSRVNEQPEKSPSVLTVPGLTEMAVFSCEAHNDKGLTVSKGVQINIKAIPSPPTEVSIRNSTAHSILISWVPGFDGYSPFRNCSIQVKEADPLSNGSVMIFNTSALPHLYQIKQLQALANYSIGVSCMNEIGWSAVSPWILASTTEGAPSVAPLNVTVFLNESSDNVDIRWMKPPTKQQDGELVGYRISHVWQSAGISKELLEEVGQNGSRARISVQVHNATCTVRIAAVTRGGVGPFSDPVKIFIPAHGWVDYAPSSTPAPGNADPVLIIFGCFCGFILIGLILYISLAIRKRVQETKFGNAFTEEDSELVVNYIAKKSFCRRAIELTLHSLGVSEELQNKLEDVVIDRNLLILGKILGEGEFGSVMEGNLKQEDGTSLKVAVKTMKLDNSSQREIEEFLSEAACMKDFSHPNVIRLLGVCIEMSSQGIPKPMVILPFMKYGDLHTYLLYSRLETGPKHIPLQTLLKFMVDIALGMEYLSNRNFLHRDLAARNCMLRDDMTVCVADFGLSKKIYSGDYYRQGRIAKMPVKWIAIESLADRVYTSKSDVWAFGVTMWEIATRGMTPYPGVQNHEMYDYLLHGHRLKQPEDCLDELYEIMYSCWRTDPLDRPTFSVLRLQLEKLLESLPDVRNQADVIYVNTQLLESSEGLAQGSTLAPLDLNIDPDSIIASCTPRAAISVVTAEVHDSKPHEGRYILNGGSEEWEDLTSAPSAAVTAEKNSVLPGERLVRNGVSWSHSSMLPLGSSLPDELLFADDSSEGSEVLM

IC50 (c-Mer) | IC50 (phosphor-Axl) | IC50 (Tyro3) | SMILES
> 100 nM | > 100 nM | > 100 nM | CCc1cc(-c2ccc(NC(=O)c3cccn([C@H](C)CO)c3=O)cc2)c2c(N)ncnn12 [Example 3, N-[4-(4-Amino-7-ethylpyrrolo[2,1-f][1,2,4]triazin-5-yl)phenyl]-1-[(1R)-2-hydroxy-1-methylethyl]-2-oxo-1,2-dihydropyridine-3-carboxamide]
≤ 5 nM | ≤ 5 nM | – | Nc1ncnn2c(C3CCOCC3)cc(-c3ccc(NC(=O)c4cccn(-c5ccccc5)c4=O)cc3F)c12 [Example 15, N-{4-[4-Amino-7-(tetrahydro-2H-pyran-4-yl)pyrrolo[2,1-f][1,2,4]triazin-5-yl]-3-fluorophenyl}-2-oxo-1-phenyl-1,2-dihydropyridine-3-carboxamide]
≤ 5 nM | – | – | Nc1ncnn2c(C3CCN(CCO)CC3)cc(-c3ccc(NC(=O)c4cccn(-c5ccc(F)cc5)c4=O)cc3)c12 [Example 53, N-(4-{4-Amino-7-[1-(2-hydroxyethyl)piperidin-4-yl]pyrrolo[2,1-f][1,2,4]triazin-5-yl}phenyl)-1-(4-fluorophenyl)-2-oxo-1,2-dihydropyridine-3-carboxamide]
– | ≤ 5 nM | > 100 nM | CC(C)C(=O)N1CCC(c2cc(-c3ccc(NC(=O)c4cn(C(C)C)cc(-c5cncc(F)c5)c4=O)cc3)c3c(N)ncnn23)CC1 [Example 129, N-(4-(4-amino-7-(1-isobutyrylpiperidin-4-yl)pyrrolo[1,2-f][1,2,4]triazin-5-yl)phenyl)-5-(5-fluoropyridin-3-yl)-1-isopropyl-4-oxo-1,4-dihydropyridine-3-carboxamide]
– | ≤ 5 nM | > 100 nM | Cc1c(-c2cnn(C)c2)cc(C(=O)Nc2ccc(-c3cc(C4CCN(C(=O)C(C)C)CC4)n4ncnc(N)c34)cc2)c(=O)n1-c1cccnc1 [Example 133, N-(4-(4-Amino-7-(1-isobutyrylpiperidin-4-yl)pyrrolo[2,1-f][1,2,4]triazin-5-yl)phenyl)-6-methyl-5-(1-methyl-1H-pyrazol-4-yl)-2-oxo-2H-[1,3′-bipyridine]-3-carboxamide]
– | ≤ 5 nM | > 100 nM | Cc1c(-c2ccnn2C)cc(C(=O)Nc2ccc(-c3cc(C4CCN(C(=O)C(C)C)CC4)n4ncnc(N)c34)cc2)c(=O)n1-c1cccnc1 [Example 134, N-(4-(4-Amino-7-(1-isobutyrylpiperidin-4-yl)pyrrolo[2,1-f][1,2,4]triazin-5-yl)phenyl)-6-methyl-5-(1-methyl-1H-pyrazol-5-yl)-2-oxo-2H-[1,3′-bipyridine]-3-carboxamide]
– | ≤ 5 nM | > 100 nM | CC(C)C(=O)N1CCC(c2cc(-c3ccc(NC(=O)c4cn(C(C)C)c(=O)n(-c5ncccn5)c4=O)cc3)c3c(N)ncnn23)CC1 [Example 143, N-(4-(4-Amino-7-(1-isobutyrylpiperidin-4-yl)pyrrolo[1,2-f][1,2,4]triazin-5-yl)phenyl)-1-isopropyl-2,4-dioxo-3-(pyrimidin-2-yl)-1,2,3,4-tetrahydropyrimidine-5-carboxamide]
– | ≤ 5 nM | > 100 nM | Cc1cc(-n2c(=O)c(C(=O)Nc3ccc(-c4cc(C5CCN(C(=O)C(C)C)CC5)n5ncnc(N)c45)cc3)cn(C(C)C)c2=O)nn1C [Example 148, N-(4-(4-Amino-7-(1-isobutyrylpiperidin-4-yl)pyrrolo[1,2-f][1,2,4]triazin-5-yl)phenyl)-3-(1,5-dimethyl-1H-pyrazol-3-yl)-1-isopropyl-2,4-dioxo-1,2,3,4-tetrahydropyrimidine-5-carboxamide]

Second part, the molecule before the results:

SMILES | IC50 (c-Mer) | IC50 (phosphor-Axl) | IC50 (Tyro3)
Nc1ncnn2c1c(-c1ccc(NC(=O)c3cccn(-c4ccccc4)c3=O)cc1)cc2[C@H]1CC[C@@H](O)CC1 [7 (cis isomer), N-{4-[4-Amino-7-(cis-4-hydroxycyclohexyl)pyrrolo[2,1-f][1,2,4]triazin-5-yl]phenyl}-2-oxo-1-phenyl-1,2-dihydropyridine-3-carboxamide] | ≤ 5 nM | – | –
Nc1ncnn2c1c(-c1ccc(NC(=O)c3cccn(-c4ccccc4)c3=O)cc1)cc2[C@H]1CC[C@H](O)CC1 [7 (trans isomer), N-{4-[4-Amino-7-(trans-4-hydroxycyclohexyl)pyrrolo[2,1-f][1,2,4]triazin-5-yl]phenyl}-2-oxo-1-phenyl-1,2-dihydropyridine-3-carboxamide] | ≤ 5 nM | – | –
CCc1cc(-c2ccc(NC(=O)c3cccn([C@H](CC)CO)c3=O)cc2)c2c(N)ncnn12 [Example 4, N-[4-(4-Amino-7-ethylpyrrolo[2,1-f][1,2,4]triazin-5-yl)phenyl]-1-[(1R)-1-(hydroxymethyl)propyl]-2-oxo-1,2-dihydropyridine-3-carboxamide] | > 100 nM | > 100 nM | > 100 nM
CCc1cc(-c2ccc(NC(=O)c3cccn(-c4ccccc4)c3=O)cc2F)c2c(N)ncnn12 [Example 12, N-[4-(4-Amino-7-ethylpyrrolo[2,1-f][1,2,4]triazin-5-yl)-3-fluorophenyl]-2-oxo-1-phenyl-1,2-dihydropyridine-3-carboxamide] | ≤ 5 nM | – | > 100 nM
Nc1ncnn2c1c(-c1ccc(NC(=O)c3cccn(-c4ccc(F)cc4)c3=O)cc1)cc2[C@H]1CC[C@@H](O)CC1 [Example 17, N-{4-[4-Amino-7-(cis-4-hydroxycyclohexyl)pyrrolo[2,1-f][1,2,4]triazin-5-yl]phenyl}-1-(4-fluorophenyl)-2-oxo-1,2-dihydropyridine-3-carboxamide] | ≤ 5 nM | ≤ 5 nM | –
Nc1ncnn2c1c(-c1ccc(NC(=O)c3cccn(-c4ccccc4)c3=O)cc1F)cc2[C@H]1CC[C@@H](O)CC1 [Example 18, N-{4-[4-Amino-7-(cis-4-hydroxycyclohexyl)pyrrolo[2,1-f][1,2,4]triazin-5-yl]-3-fluorophenyl}-2-oxo-1-phenyl-1,2-dihydropyridine-3-carboxamide] | ≤ 5 nM | ≤ 5 nM | –
CN1CCC(c2cc(-c3ccc(NC(=O)c4cccn(-c5ccc(F)cc5)c4=O)cc3)c3c(N)ncnn23)CC1 [Example 21, N-{4-[4-Amino-7-(1-methylpiperidin-4-yl)pyrrolo[2,1-f][1,2,4]triazin-5-yl]phenyl}-1-(4-fluorophenyl)-2-oxo-1,2-dihydropyridine-3-carboxamide] | ≤ 5 nM | – | –
CC(C)C(=O)N1CCC(c2cc(-c3ccc(NC(=O)c4ccc(-c5ccccn5)n(-c5ccccc5)c4=O)cc3)c3c(N)ncnn23)CC1 [Example 104, N-(4-(4-Amino-7-(1-isobutyrylpiperidin-4-yl)pyrrolo[2,1-f][1,2,4]triazin-5-yl)phenyl)-6-oxo-1-phenyl-1,6-dihydro-[2,2′-bipyridine]-5-carboxamide] | ≤ 5 nM | ≤ 5 nM | –
CC(C)C(=O)N1CCC(c2cc(-c3ccc(NC(=O)c4cn(C(C)C)cc(-c5cccnc5)c4=O)cc3)c3c(N)ncnn23)CC1 [Example 128, N-(4-(4-Amino-7-(1-isobutyrylpiperidin-4-yl)pyrrolo[1,2-f][1,2,4]triazin-5-yl)phenyl)-1-isopropyl-4-oxo-5-(pyridin-3-yl)-1,4-dihydropyridine-3-carboxamide] | – | ≤ 5 nM | > 100 nM
CCOCc1c(C#N)cc(C(=O)Nc2ccc(-c3cc(C4CCN(C(=O)C(C)C)CC4)n4ncnc(N)c34)cc2)c(=O)n1-c1ccccc1 [Example 137, N-(4-(4-Amino-7-(1-isobutyrylpiperidin-4-yl)pyrrolo[2,1-f][1,2,4]triazin-5-yl)phenyl)-5-cyano-6-(ethoxymethyl)-2-oxo-1-phenyl-1,2-dihydropyridine-3-carboxamide] | – | ≤ 5 nM | > 100 nM
CC(C)C(=O)N1CCC(c2cc(-c3ccc(NC(=O)c4cn(C5CC5)c(=O)n(-c5cccnc5)c4=O)cc3)c3c(N)ncnn23)CC1 [Example 140, N-(4-(4-Amino-7-(1-isobutyrylpiperidin-4-yl)pyrrolo[2,1-f][1,2,4]triazin-5-yl)phenyl)-1-cyclopropyl-2,4-dioxo-3-(pyridin-3-yl)-1,2,3,4-tetrahydropyrimidine-5-carboxamide] | – | ≤ 5 nM | > 100 nM
Cc1ncccc1-c1c(C)n(C2CC2)cc(C(=O)Nc2ccc(-c3cc(C4CCN(C(=O)C(C)C)CC4)n4ncnc(N)c34)cc2)c1=O [Example 142, N-(4-(4-Amino-7-(1-isobutyrylpiperidin-4-yl)pyrrolo[2,1-f][1,2,4]triazin-5-yl)phenyl)-1-cyclopropyl-2,2′-dimethyl-4-oxo-1,4-dihydro-[3,3′-bipyridine]-5-carboxamide] | – | ≤ 5 nM | > 100 nM
CC(C)C(=O)N1CCC(c2cc(-c3ccc(NC(=O)c4cn(C5CC5)c(=O)n(-c5ccccn5)c4=O)cc3)c3c(N)ncnn23)CC1 [Example 144, N-(4-(4-Amino-7-(1-isobutyrylpiperidin-4-yl)pyrrolo[1,2-f][1,2,4]triazin-5-yl)phenyl)-1-cyclopropyl-2,4-dioxo-3-(pyridin-2-yl)-1,2,3,4-tetrahydropyrimidine-5-carboxamide] | – | ≤ 5 nM | > 100 nM
Cc1cccc(-n2c(=O)c(C(=O)Nc3ccc(-c4cc(C5CCN(C(=O)C(C)C)CC5)n5ncnc(N)c45)cc3)cn(C(C)C)c2=O)n1 [Example 149, N-(4-(4-Amino-7-(1-isobutyrylpiperidin-4-yl)pyrrolo[1,2-f][1,2,4]triazin-5-yl)phenyl)-1-isopropyl-3-(6-methylpyridin-2-yl)-2,4-dioxo-1,2,3,4-tetrahydropyrimidine-5-carboxamide] | – | ≤ 5 nM | > 100 nM
